# Experimental data as given in PMC8733953, “Identifying specific matrix metalloproteinase-2-inhibiting peptides through phage display-based subtractive screening” (Turkish Journal of Biology, 2021).
# Entries after “also recorded” stand apart in the source; their conditions may differ.
# Tested on: HUVEC
# Assay: Wound-healing (cell migration) assay
# Type: cell-based, human
# Conditions: peptide 100 μM or EDTA 2 mM, 24 h
# Description: For cell culture study, human umbilical vein endothelial cells (HUVECs; C2519A) were purchased from Lonza, Basel, Switzerland. The cells were cultured in endothelial complete media, which is composed of endothelial basal media EBM-2 (CC-3156, Lonza) supplemented with 1% penicillin (10,000 units/mL)- streptomycin (10,000 units/mL) (Gibco, Cat No 15140122) and endothelial cell growth medium 2 (EGM-2) SingleQuots (CC-4176, Lonza, Switzerland) containing growth factors (insulin-like growth factor, human fibroblast growth factor, human epidermal growth factor, and vascular endothelial growth factor), and supplements (ascorbic acid, heparin, hydrocortisone, and fetal bovine serum). Cell passage was carried out three times per week, considering the cell doubling time (Erdag et al., 2011). Cell migration was investigated using a wound-healing assay. HUVEC cells were detached from the cell culture flask using 0.25% trypsin-EDTA and harvested when cell confluence was approximately 70%–80%. After confirming that cell viability was at least 90%, the cells were suspended in complete medium to a density of 1 × 10^5 cells/mL. […] Wound areas were measured using the Gen5 software, and the relative wound area per time-point was calculated based on the wound at 0 h.
smiles,measurement,setting,value
O=C(O)CN(CCN(CC(=O)O)CC(=O)O)CC(=O)O [EDTA],wound area still uncovered (wound opening area),"HUVEC monolayer scratched, relative to wound at 0 h, three independent experiments",82%
same,effect on wound healing (in words),HUVEC,no significant wound healing was observed; also recorded: twice the inhibition effect
